Results reported in ChEMBL document CHEMBL3751679, “DNA cleavage at the AP site via β-elimination mediated by the AP site-binding ligands” (Bioorg Med Chem, 2016).
Active and inactive are the calls of the source. The calls are words filed in the database; no cut-off is given here.

Key:
Homo sapiens [1] = organism: Homo sapiens; assay: Binding affinity to duplex DNA1(AP)/DNA2(C) (unknown origin) assessed as APE1 catalyzed beta-elimination product formation by gel electrophoresis
Homo sapiens [2] = organism: Homo sapiens; assay: Binding affinity to duplex DNA1(AP)/DNA2(A) (unknown origin) assessed as APE1 catalyzed beta-elimination product formation by gel electrophoresis
Homo sapiens [3] = organism: Homo sapiens; assay: Binding affinity to duplex DNA1(AP)/DNA2(T) (unknown origin) assessed as APE1 catalyzed beta-elimination product formation by gel electrophoresis
Homo sapiens [4] = organism: Homo sapiens; assay: Binding affinity to duplex DNA1(AP)/DNA2(C) (unknown origin) assessed as beta-elimination product formation at 10 uM pH 7 by gel electrophoresis
Homo sapiens [5] = organism: Homo sapiens; assay: Binding affinity to duplex DNA1(AP)/DNA2(T) (unknown origin) assessed as beta-elimination product formation at 10 uM pH 7 by gel electrophoresis
Homo sapiens [6] = organism: Homo sapiens; assay: Binding affinity to duplex DNA1(AP)/DNA2(G) (unknown origin) assessed as beta-elimination product formation at 10 uM pH 7 by gel electrophoresis
Homo sapiens [7] = organism: Homo sapiens; assay: Binding affinity to duplex DNA1(AP)/DNA2(A) (unknown origin) assessed as beta-elimination product formation at 10 uM pH 7 by gel electrophoresis
Homo sapiens [8] = organism: Homo sapiens; assay: Binding affinity to duplex DNA1(AP)/DNA2(C) (unknown origin) assessed as beta-elimination product formation by HPLC analysis
Homo sapiens [9] = organism: Homo sapiens; assay: Binding affinity to duplex DNA1(AP)/DNA2(C) (unknown origin) assessed as beta-elimination product formation after 1 hr at pH 8 by gel electrophoresis
Homo sapiens [10] = organism: Homo sapiens; assay: Binding affinity to duplex DNA1(AP)/DNA2(G) (unknown origin) assessed as APE1 catalyzed beta-elimination product formation by gel electrophoresis

Compound	Activity (Homo sapiens [1])	Activity (Homo sapiens [4])	Activity (Homo sapiens [5])	Activity (Homo sapiens [6])	Activity (Homo sapiens [7])	other results
NCCCNCCCN	inactive					
Cc1cn(CCCNCCCNCCCN)c(=O)[nH]c1=O						Activity (Homo sapiens [2]): inactive
NCCCNCCCNCCCn1cnc2c(N)ncnc21		Active	Active	Active	Active	Activity (Homo sapiens [3]): Active
NCCCNCCCNCCCn1cnc2c(=O)[nH]c(N)nc21	Active	Active	inactive	inactive	inactive	Activity (Homo sapiens [8]): Active; Activity (Homo sapiens [9]): Active
NCCCNCCCNCCCn1ccc(N)nc1=O						Activity (Homo sapiens [10]): inactive
